Measured values: article PMC11262537, “Cell-Penetrating Chaperone Nuc1 for Small- and Large-Molecule Delivery Into Retinal Cells and Tissues” (Investigative Ophthalmology & Visual Science, 2024)
Entries after “also recorded” stand apart in the source; their conditions may differ. Residues, ends and D or L forms follow the SMILES beside them. No end group written: not given here. *: point of attachment. 6FAM = O=C1OC2(c3ccc(O)cc3Oc3cc(O)ccc32)c2cc(C(=O)*)ccc21

Legend:
[1] = system: retinal tissues and cells; experiment: Retinal penetration of FAM-labeled peptide after intravitreal injection, fluorescence microscopy of cryosections; assay type: in vivo, C57BL/6J mice; conditions: for localization in retinal layers: 1 µg in 1 µL H2O intravitreal, 4 hours postinjection, fluorescence microscopy of cryosections, n = 4 to 5 animals per group
Procedure: Retinal cryosections (14 µm) were rehydrated in phosphate-buffered saline (PBS) for 15 minutes, permeabilized, and blocked with 6% normal goat serum in PBS containing 0.1% Triton-X-100 (or using mouse-on-mouse kit as appropriate) for 45 minutes and incubated overnight in a saturated chamber with the primary antibodies against anti-glutamine synthetase (Müller cells), anti–β-III-tubulin (ganglion cells), anti-rhodopsin (rod cells), anti–S-opsin (cone cells), and anti-PKCα (bipolar cells). Subsequently, sections were washed and incubated with respective secondary antibodies labeled with Alexa Fluor 594 or 488 (Molecular Probes, Eugene, OR, USA) or Cy3 (Jackson Immunoresearch, Westgrove, PA, USA). Slides were mounted in antifade medium containing DAPI (Vectashield-DAPI; Vector Laboratories, Burlingame, CA, USA) to counterstain nuclei, and images were captured with a Leica TCS SPE microscope (Leica Microsystems, Wetzlar, Germany).
(§1) In order to determine whether Nuc1 peptide was toxic to the murine retina, we injected various amounts (0.5–4.0 µg) 5′ 6-FAM–labeled Nuc1 into the vitreous of 6-week-old C57BL/6J mice and processed the retinas as described below. We determined that 1 µg Nuc1 was not toxic to the retina, whereas 4.0 µg Nuc1 generated some toxicity (data not shown). Based on these observations, we selected 1 µg as an optimal working dose. We then injected 1 µg 5′ 6-FAM–labeled Nuc1 suspended in 1 µL H2O or 1 µg 5′ 6-FAM-SC (a scrambled peptide) into the vitreous of 6-week-old C57BL/6J mice. Four hours postinjection, eyes were enucleated, fixed, and cryosectioned and the retina was imaged by fluorescence microscopy. […] We conclude that Nuc1 peptide penetrates the retina and labels a variety of retinal cells following intravitreal injection.

[2] = system: murine retinal tissue explants; experiment: Retinal explant culture uptake with or without imipramine (macropinocytosis); assay type: cell-based, C57BL6/J mice; conditions: 37°C, confocal imaging, n = 3–4 explants per group; for uptake into retinal explants in presence of imipramine: 1 µg/mL in DMEM/F12 + 5 µM imipramine, 4 hours; for uptake into retinal explants: 1 µg/mL in DMEM/F12, 4 hours, 5% CO2, absence of imipramine
Procedure: After careful removal, the eyeballs from C57BL6/J mice were transferred to a Petri dish containing fresh cold Dulbecco's modified Eagle's medium (DMEM). Under a dissecting microscope, the cornea, ocular muscles, and lens were removed and flat mounts prepared via making four incisions from the margin of the eye cup toward the optic nerve. Flat mounts were transferred into six-well plates containing fresh DMEM/F12 mixed with 5′ 6-FAM-Nuc1 or 5′ 6-FAM-SC (1 µg/mL) in presence or absence of 5 µM imipramine (Sigma). After 4 hours of culturing in a cell culture incubator (37°C, 5% CO2), retinas were washed twice with PBS and fixed with 4% PFA for 15 minutes. Thereafter, the tissue sections were soaked in 15% to 30% sucrose at 4°C overnight. Retinal explants were frozen into Tissue-Tek cryomolds (Torrence, CA, USA) and the 14-µm sections were imaged under a Leica (Teaneck, NJ, USA) TCS-SPE confocal microscope.
Macropinocytosis is a specialized pathway of endocytosis characterized by the nonspecific internalization of extracellular fluids, solutes, and membrane in large endocytic vesicles known as macropinosomes. Macropinocytosis plays a role in a variety of physiological processes, including nutrient sensing, recycling of plasma proteins, and signaling.[42]^,[43] Molecules that bind HSPGs can stimulate bulk cellular uptake via macropinocytosis.[19] […] In order to test the hypothesis that Nuc1 can be taken up by cells via macropinocytosis, murine retinal tissue explants were incubated in 5′ 6-FAM-Nuc1 (1 µg/mL) in the presence or absence of 5 µM imipramine. After 4 hours, explants were processed for cryosectioning as above. We found robust uptake of 5′ 6-FAM-Nuc1 within 4 hours of incubation (Fig. 7). […] We conclude that Nuc1 peptide penetrates retinal cells in part by the process of macropinocytosis.

murine retina = experiment: Retinal toxicity of Nuc1 after intravitreal injection; assay type: in vivo, C57BL/6J mice; conditions: for toxicity to the retina: 6-week-old C57BL/6J mice, data not shown
Procedure: as §1
Furthermore, while sequences used in the design of Nuc1 were selected based on prior studies of nucleolin and heparan-sulfate proteoglycan-binding sequences, detailed analysis of mechanism(s) of uptake is ongoing in our laboratory. Such studies face the challenge of limitations associated with retinal cell culture with a bona fide extracellular matrix.

Row | Compound | localization in retinal layers [1] | uptake into retinal explants in presence of imipramine [2] | uptake into retinal explants [2] | retinal cell types targeted ([1]; 1 µg intravitreal, 4 hours, costaining for tubulin, PKC, rod opsin, glutamine synthase) | toxicity to the retina (murine retina; 1 µg 5′ 6-FAM-labeled Nuc1 intravitreal) | toxicity to the retina (murine retina; 4.0 µg 5′ 6-FAM-labeled Nuc1 intravitreal) | obvious toxicity associated with Nuc1 (murine retina; short-term (4 hours) or longer-term (2 weeks) proof-of-concept studies)
1 | CC[C@H](C)[C@H](NC(=O)[C@H](CO)NC(=O)[C@H](C)NC(=O)[C@H](CCCNC(=N)N)NC(=O)c1ccc2c(c1)C1(OC2=O)c2ccc(O)cc2Oc2cc(O)ccc21)C(=O)N[C@@H](C)C(=O)N[C@@H](CCCCN)C(=O)N[C@@H](C)C(=O)N[C@@H](CCCNC(=N)N)C(=O)N[C@@H](CC(=O)O)C(=O)N[C@H](C(=O)N[C@@H](CCCCN)C(=O)NCC(=O)N[C@H](C(=O)N1CCC[C@H]1C(=O)NCC(=O)N[C@@H](CO)C(=O)O)C(C)C)C(C)C [5′ 6-FAM-SC, reference compound] (6FAM-RASIAKARDVKGVPGS-OH) | accumulated primarily at the inner limiting membrane and was very weakly visible in the retina; also recorded: does not significantly penetrate the retina | marginal reduction in uptake | did not show any significant uptake |  |  |  | 
2 | CC[C@H](C)[C@H](NC(=O)[C@H](CO)NC(=O)[C@H](C)NC(=O)c1ccc2c(c1)C1(OC2=O)c2ccc(O)cc2Oc2cc(O)ccc21)C(=O)N[C@@H](CCCCN)C(=O)N[C@H](C(=O)N[C@@H](C)C(=O)N[C@H](C(=O)N[C@@H](CO)C(=O)N[C@@H](C)C(=O)NCC(=O)NCC(=O)N[C@@H](CC(=O)O)C(=O)N[C@@H](CCCCN)C(=O)N1CCC[C@H]1C(=O)N[C@@H](CCCNC(=N)N)C(=O)N[C@@H](CCCNC(=N)N)C(=O)O)C(C)C)C(C)C [5′ 6-FAM-Nuc1] (6FAM-ASIKVAVSAGGDKPRR-OH) | abundantly localized to all layers of the retina; also recorded: localizes to all layers of the retina | significantly reduced uptake | robust uptake | ganglion cells, bipolar cells, photoreceptors, and Müller cells |  |  | 
3 | ASIKVAVSAGGDKPRR [Nuc1] |  |  |  |  | not toxic | some toxicity | did not observe any obvious toxicity
